Assay [1] concerns the target CDK1-CYCLIN B (Homo sapiens, UniProt P06493). Kind of assay: CDK protein kinase inhibition by ADP-Glo assay, CDK1-CYCLIN B. It counts as biochemical. As to conditions: for IC50: read-out: CDK1-CYCLINB, IC50; for CDK2 Fold selectivity against CDK1: fold selectivity for CDK2 over CDK1, recombinant CDK kinases. The gist of the method:
(§1)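 Enzyme reactions contain 1000 μM ATP and 5 mM MgCl2 in HEPES pH 7.5 with BSA, Triton X-100, DTT, orthovanadate and beta-glycerophosphate. They proceed at 22° C before ADP-Glo luminescent detection of ADP produced.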

Assay [2] has as its target CDK2-CYCLIN E1 (Homo sapiens, UniProt P24941). Kind of assay: CDK protein kinase inhibition by ADP-Glo assay, CDK2-CYCLIN E1. It counts as biochemical. The settings on record: read-out: CDK2-CYCLINE, IC50. The gist of the method:
as §1

Assay [3] concerns the target CDK4-CYCLIN D1 (Homo sapiens, UniProt P11802). As to the kind of experiment: CDK protein kinase inhibition by ADP-Glo assay, CDK4-CYCLIN D1. It counts as biochemical. The settings on record: for IC50: read-out: CDK4-CYCLIND1, IC50; for CDK2 Fold selectivity against CDK4: fold selectivity for CDK2 over CDK4, recombinant CDK kinases. The gist of the method:
as §1
Background: ADP-Glo turns the ADP formed in a reaction into a luminescent signal.

Assay [4] addresses CDK6-CYCLIN D3 (Homo sapiens, UniProt Q00534). As to the kind of experiment: CDK protein kinase inhibition by ADP-Glo assay, CDK6-CYCLIN D3. As to conditions: for IC50: read-out: CDK6-CYCLIND3, IC50; for CDK2 Fold selectivity against CDK6: fold selectivity for CDK2 over CDK6, recombinant CDK kinases. It counts as biochemical. The gist of the method:
as §1

Assay [5] addresses CDK9-CYCLIN T1 (Homo sapiens, UniProt P50750). As to the kind of experiment: CDK protein kinase inhibition by ADP-Glo assay, CDK9-CYCLIN T1. It counts as biochemical. As to conditions: for IC50: read-out: CDK9-CYCLINT1, IC50; for CDK2 Fold selectivity against CDK9: fold selectivity for CDK2 over CDK9, recombinant CDK kinases. The gist of the method: as §1
The subject of assay [6] is Phospho-Rb (Ser807/811) in OVCAR3 cells. Kind of assay: Phospho-Rb expression inhibition in OVCAR3 cells quantified by In Cell Western. It counts as cell-based. The settings on record: Homo sapiens, OVCAR-3, 24 hours, read-out: OVCAR-3 pRb IC50. The gist of the method: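 In-cell western: after 24 h compound exposure at 37° C, fixed OVCAR3 cells co-stained for pRb Ser807/811 (800 nm channel) and total Rb (680 nm channel), imaged by LI-COR Odyssey.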

The test system of assay [7] is CCNE1-amplified OVCAR3 cells. Kind of assay: Cell growth inhibition of CCNE1-amplified OVCAR3 cells (CellTiter-Glo). As to conditions: Homo sapiens, OVCAR-3, 144 h, 6 days. It counts as cell-based. The gist of the method:
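Growth read-out was CellTiter-Glo luminescence, taken after 10 min at room temperature at the end of a 6-day compound exposure at 37 °C. Compounds were diluted from DMSO stocks across various concentrations.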
For orientation: ATP-based viability assays read luminescence as a measure of living cells.

In assay [8] the test system is CCNE1-normal SKOV3 cells. Kind of assay: Cell growth inhibition of CCNE1-normal SKOV3 cells (CellTiter-Glo). It counts as cell-based. As to conditions: Homo sapiens, SK-OV-3, 144 h, 6 days. The gist of the method: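 Growth was measured by CellTiter-Glo luminescence after 6 days' compound exposure at 37 °C. Cells were plated one day before dosing at 1000 per well in medium with 10% FBS, and compounds were diluted from DMSO stocks.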

Where [9] appears, read: Table 35, recombinant CDK kinase.
Where [10] appears, read: Table 37, recombinant CDK kinase.

The record followed here is patent publication US20240317777A1, “NOVEL MACROCYCLIC AMINOPYRAZOLE COMPOUNDS AS CDK2 INHIBITORS” (Accutar Biotechnology Inc., priority 2023, published 2024).

Read-outs that look alike come from different tables or passages of the source. A value given as a limit tells only on which side of the number the result lay.

Chain of CDK9-CYCLIN T1 (P50750 whole entry): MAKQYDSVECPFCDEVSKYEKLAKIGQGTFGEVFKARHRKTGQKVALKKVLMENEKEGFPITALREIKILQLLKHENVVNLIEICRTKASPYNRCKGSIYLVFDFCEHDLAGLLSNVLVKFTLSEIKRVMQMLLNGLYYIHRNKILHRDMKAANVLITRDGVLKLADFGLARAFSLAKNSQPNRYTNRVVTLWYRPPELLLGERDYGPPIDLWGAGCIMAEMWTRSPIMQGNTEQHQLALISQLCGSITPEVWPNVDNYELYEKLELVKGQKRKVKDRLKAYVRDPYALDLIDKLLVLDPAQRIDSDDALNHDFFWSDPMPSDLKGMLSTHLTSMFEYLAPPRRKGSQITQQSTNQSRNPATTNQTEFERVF
Chain of CDK9-CYCLIN T1 (O60563 whole entry partner): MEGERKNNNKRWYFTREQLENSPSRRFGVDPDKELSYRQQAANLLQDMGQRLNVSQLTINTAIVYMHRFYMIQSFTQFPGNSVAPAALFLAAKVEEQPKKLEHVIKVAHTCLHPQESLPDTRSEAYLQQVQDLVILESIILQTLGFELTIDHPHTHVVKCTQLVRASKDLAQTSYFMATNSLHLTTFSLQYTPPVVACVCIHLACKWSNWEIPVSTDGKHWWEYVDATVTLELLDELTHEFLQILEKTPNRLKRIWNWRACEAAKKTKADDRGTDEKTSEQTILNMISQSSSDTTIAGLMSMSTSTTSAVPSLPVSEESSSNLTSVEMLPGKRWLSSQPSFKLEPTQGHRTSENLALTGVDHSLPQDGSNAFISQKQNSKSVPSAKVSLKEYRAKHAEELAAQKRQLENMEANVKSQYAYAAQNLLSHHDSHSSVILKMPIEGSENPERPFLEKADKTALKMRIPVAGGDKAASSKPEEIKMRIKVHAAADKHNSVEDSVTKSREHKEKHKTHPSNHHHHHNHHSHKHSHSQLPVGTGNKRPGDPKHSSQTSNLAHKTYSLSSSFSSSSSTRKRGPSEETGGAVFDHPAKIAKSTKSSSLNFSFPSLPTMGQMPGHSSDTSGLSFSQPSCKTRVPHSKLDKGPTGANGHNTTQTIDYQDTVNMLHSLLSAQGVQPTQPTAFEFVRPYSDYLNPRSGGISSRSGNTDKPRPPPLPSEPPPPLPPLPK
Chain of CDK4-CYCLIN D1 (P11802 whole entry): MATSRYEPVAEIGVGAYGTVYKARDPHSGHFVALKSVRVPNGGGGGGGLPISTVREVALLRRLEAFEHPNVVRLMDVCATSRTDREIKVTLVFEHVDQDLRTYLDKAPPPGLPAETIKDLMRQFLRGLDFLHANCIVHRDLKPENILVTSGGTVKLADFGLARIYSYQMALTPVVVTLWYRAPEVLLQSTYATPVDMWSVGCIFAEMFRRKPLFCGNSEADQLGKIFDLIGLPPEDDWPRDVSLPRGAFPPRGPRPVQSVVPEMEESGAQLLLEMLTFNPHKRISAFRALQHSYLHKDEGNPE
Chain of CDK4-CYCLIN D1 (P24385 whole entry partner): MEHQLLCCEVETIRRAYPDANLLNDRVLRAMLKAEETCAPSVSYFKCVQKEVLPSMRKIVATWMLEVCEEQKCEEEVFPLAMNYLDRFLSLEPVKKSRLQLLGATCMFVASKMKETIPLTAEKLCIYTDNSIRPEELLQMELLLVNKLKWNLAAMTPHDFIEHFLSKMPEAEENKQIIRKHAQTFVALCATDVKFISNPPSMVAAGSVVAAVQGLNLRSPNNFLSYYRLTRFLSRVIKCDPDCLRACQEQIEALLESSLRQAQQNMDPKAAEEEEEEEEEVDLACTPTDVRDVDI
Chain of CDK6-CYCLIN D3 (Q00534 whole entry): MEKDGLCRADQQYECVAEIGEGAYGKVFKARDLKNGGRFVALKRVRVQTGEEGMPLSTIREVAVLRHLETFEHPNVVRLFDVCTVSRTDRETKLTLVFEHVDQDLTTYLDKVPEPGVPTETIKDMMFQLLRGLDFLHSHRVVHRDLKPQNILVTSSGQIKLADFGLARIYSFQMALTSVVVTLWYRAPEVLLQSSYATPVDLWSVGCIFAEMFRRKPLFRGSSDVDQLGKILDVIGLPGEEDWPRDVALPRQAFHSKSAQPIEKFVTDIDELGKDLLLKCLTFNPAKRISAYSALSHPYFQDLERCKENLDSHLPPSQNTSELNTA
Chain of CDK6-CYCLIN D3 (P30281 whole entry partner): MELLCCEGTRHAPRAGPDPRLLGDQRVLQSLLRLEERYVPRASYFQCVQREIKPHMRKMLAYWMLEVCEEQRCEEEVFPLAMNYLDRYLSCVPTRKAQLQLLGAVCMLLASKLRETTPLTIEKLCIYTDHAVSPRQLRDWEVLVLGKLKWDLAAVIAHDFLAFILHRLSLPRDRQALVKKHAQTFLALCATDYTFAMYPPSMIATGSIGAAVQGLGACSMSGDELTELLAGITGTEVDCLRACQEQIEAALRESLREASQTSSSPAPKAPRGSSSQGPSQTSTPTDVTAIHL
Chain of CDK1-CYCLIN B (P06493 whole entry): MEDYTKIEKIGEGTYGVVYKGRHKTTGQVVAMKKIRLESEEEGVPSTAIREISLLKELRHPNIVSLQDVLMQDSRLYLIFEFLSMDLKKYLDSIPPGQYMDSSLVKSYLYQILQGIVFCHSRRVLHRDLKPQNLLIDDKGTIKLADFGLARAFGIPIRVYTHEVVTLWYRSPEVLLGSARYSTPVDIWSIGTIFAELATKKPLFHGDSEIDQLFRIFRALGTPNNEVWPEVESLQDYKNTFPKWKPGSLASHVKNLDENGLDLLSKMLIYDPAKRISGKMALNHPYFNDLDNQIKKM
Chain of CDK1-CYCLIN B (P14635 whole entry partner): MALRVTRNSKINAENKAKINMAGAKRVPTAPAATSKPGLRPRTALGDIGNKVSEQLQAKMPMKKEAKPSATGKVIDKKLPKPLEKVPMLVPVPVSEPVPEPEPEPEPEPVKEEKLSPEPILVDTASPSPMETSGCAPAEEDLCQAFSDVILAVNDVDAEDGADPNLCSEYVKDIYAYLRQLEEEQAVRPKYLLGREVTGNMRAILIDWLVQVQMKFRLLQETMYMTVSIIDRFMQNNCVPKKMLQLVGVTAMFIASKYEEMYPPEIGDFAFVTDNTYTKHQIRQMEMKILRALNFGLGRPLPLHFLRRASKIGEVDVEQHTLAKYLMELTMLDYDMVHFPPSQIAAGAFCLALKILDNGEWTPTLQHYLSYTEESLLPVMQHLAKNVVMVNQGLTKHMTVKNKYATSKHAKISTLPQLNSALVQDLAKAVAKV

The term IC50 denotes the concentration that inhibits the measured activity by half. Turning to `C[C@H]1CCCOc2cc(ccn2)Nc2cc(n[nH]2)[C@H]2C[C@@H](F)[C@H](C2)OC(=O)N1` [Compound 224, (1^1R,1^3S,1^4R,9S,Z)-1^4-fluoro-9-methyl-2^1H-5,12-dioxa-3,10-diaza-4(4,2)-pyridina-2(3,5)-pyrazola-1(1,3)-cyclopentanacyclododecaphan-11-one], the IC50 in assay [1] (setting [9]) was 10 to 50 nM; in assay [2] (setting [9]), at most 10 nM; in assay [3] (setting [9]), 100 to 500 nM; in assay [4] (setting [9]), 100 to 500 nM; in assay [5] (setting [9]) it was above 500 nM; in assay [6] it was 2 to 10 nM. Moreover, the 50% inhibitory concentration (IC50) in assay [7] was 10 to 50 nM; in assay [8], above 1250 nM. Further, the “CDK2 Fold selectivity against CDK1” value in assay [1] (Table 36) was “E (E, <20)”. The “CDK2 Fold selectivity against CDK4” value in assay [3] (Table 36) was “C (C, >50 and ≤100)”. In addition, the “CDK2 Fold selectivity against CDK6” value in assay [4] (Table 36) is “C (C, >50 and ≤100)”. For the same compound, the “CDK2 Fold selectivity against CDK9” value in assay [5] (Table 36) was “B (B, >100 and ≤500)”.
Turning to `C[C@H]1CCCOc2cc(ccn2)Nc2cc(n[nH]2)[C@@H]2C[C@H](F)[C@@H](C2)OC(=O)N1` [Compound 225, (1^1S,1^3R,1^4S,9S,Z)-1^4-fluoro-9-methyl-2^1H-5,12-dioxa-3,10-diaza-4(4,2)-pyridina-2(3,5)-pyrazola-1(1,3)-cyclopentanacyclododecaphan-11-one], the IC50 in assay [1] (setting [9]) was at most 10 nM; in assay [2] (setting [9]), at most 10 nM; in assay [3] (setting [9]) it was 10 to 50 nM; in assay [4] (setting [9]), 10 to 50 nM; in assay [5] (setting [9]) it was 10 to 50 nM; in assay [6] it was 2 to 10 nM. For the same compound, the IC50 lay within 10 to 50 nM in assay [7] and 250 to 1250 nM in assay [8]. In addition, in assay [1] (Table 36), the “CDK2 Fold selectivity against CDK1” value was “E (E, <20)”. The “CDK2 Fold selectivity against CDK4” value in assay [3] (Table 36) was “E (E, <20)”. The “CDK2 Fold selectivity against CDK6” value in assay [4] (Table 36) is given as “E (E, <20)”. Also, the “CDK2 Fold selectivity against CDK9” value in assay [5] (Table 36) is on record as “E (E, <20)”.
As for `C[C@H]1CC(F)(F)COc2cc(ccn2)Nc2[nH]nc(c2F)[C@H]2CC[C@H](C2)OC(=O)N1` [Compound 244, (1^1S,1^3R,9S,E)-2^4,7,7-trifluoro-9-methyl-2^1H-5,12-dioxa-3,10-diaza-4(4,2)-pyridina-2(3,5)-pyrazola-1(1,3)-cyclopentanacyclododecaphan-11-one], the IC50 in assay [1] (setting [10]) is 100 to 500 nM; in assay [2] (setting [10]), at most 10 nM; in assay [3] (setting [10]) it was above 500 nM; in assay [4] (setting [10]), above 500 nM; in assay [5] (setting [10]), above 500 nM; in assay [6], 10 to 50 nM. For the same compound, the concentration for half-maximal inhibition (IC50) in assay [7] is 50 to 250 nM; in assay [8], above 1250 nM. The “CDK2 Fold selectivity against CDK1” value in assay [1] (Table 38) is “D (D, >20 and ≤50)”. Moreover, the “CDK2 Fold selectivity against CDK4” value in assay [3] (Table 38) is “B (B, >100 and ≤500)”. For the same compound, the “CDK2 Fold selectivity against CDK6” value in assay [4] (Table 38) is “B (B, >100 and ≤500)”. Also, in assay [5] (Table 38), the “CDK2 Fold selectivity against CDK9” value is “A (A, ≥500)”.
For `C[C@H]1CCCNC(=O)O[C@@H]2CC[C@@H](C2)c2cc([nH]n2)Nc2ccnc(c2)O1` [compound 12], the IC50 was 10 to 50 nM in assay [1] (ADP-Glo, 1000 μM ATP, Table 11); at most 10 nM in assay [2] (ADP-Glo, 1000 μM ATP, Table 11); 100 to 500 nM in assay [3] (ADP-Glo, 1000 μM ATP, Table 11); 100 to 500 nM in assay [4] (ADP-Glo, 1000 μM ATP, Table 11); 100 to 500 nM in assay [5] (ADP-Glo, 1000 μM ATP, Table 11); 2 to 10 nM in assay [6]. The IC50 in assay [7] lay in the range of 10 to 50 nM; in assay [8], 250 to 1250 nM.
Consider `O=C1NC23CC(CCc4cc(ccn4)Nc4cc([nH]n4)[C@H]4CC[C@H](C4)O1)(C2)C3` [compound 21], for which the concentration for half-maximal inhibition (IC50) was above 500 nM in assay [1] (ADP-Glo, 1000 μM ATP, Table 9); 10 to 50 nM in assay [2] (ADP-Glo, 1000 μM ATP, Table 9); 100 to 500 nM in assay [3] (ADP-Glo, 1000 μM ATP, Table 9); 100 to 500 nM in assay [4] (ADP-Glo, 1000 μM ATP, Table 9); 100 to 500 nM in assay [5] (ADP-Glo, 1000 μM ATP, Table 9); 2 to 10 nM in assay [6]. In addition, the IC50 in assay [7] was in the range of 2 to 10 nM; in assay [8], 250 to 1250 nM.
On to `C[C@H]1OCCCNC(=O)O[C@@H]2CC[C@@H](C2)c2cc([nH]n2)Nc2ccnc1c2` [compound 71], for which the IC50 in assay [1] (ADP-Glo, 1000 μM ATP, Table 15) is 50 to 100 nM; in assay [2] (ADP-Glo, 1000 μM ATP, Table 15), at most 10 nM; in assay [3] (ADP-Glo, 1000 μM ATP, Table 15) it was 100 to 500 nM; in assay [4] (ADP-Glo, 1000 μM ATP, Table 15) it was 100 to 500 nM; in assay [5] (ADP-Glo, 1000 μM ATP, Table 15), 100 to 500 nM; in assay [6] it was 2 to 10 nM. Further, the IC50 fell in the range of 10 to 50 nM in assay [7] and 50 to 250 nM in assay [8].
With `O=C1NCCCCOc2cncc(c2)Nc2cc(n[nH]2)[C@H]2CC[C@H](C2)O1` [compound 104], the IC50 in assay [1] (ADP-Glo, 1000 μM ATP, Table 7) was 10 to 50 nM; in assay [2] (ADP-Glo, 1000 μM ATP, Table 7) it was at most 10 nM; in assay [3] (ADP-Glo, 1000 μM ATP, Table 7), 50 to 100 nM; in assay [4] (ADP-Glo, 1000 μM ATP, Table 7), 10 to 50 nM; in assay [5] (ADP-Glo, 1000 μM ATP, Table 7), 100 to 500 nM; in assay [6], 2 to 10 nM. Further, the IC50 is 10 to 50 nM in assay [7] and above 1250 nM in assay [8].
`C[C@@H]1CCC2(CC2)NC(=O)O[C@@H]2CC[C@@H](C2)c2cc([nH]n2)Nc2ccnc(c2)O1` [compound 109]: the IC50 in assay [1] (ADP-Glo, 1000 μM ATP, Table 9) was 10 to 50 nM; in assay [2] (ADP-Glo, 1000 μM ATP, Table 9), at most 10 nM; in assay [3] (ADP-Glo, 1000 μM ATP, Table 9), 50 to 100 nM; in assay [4] (ADP-Glo, 1000 μM ATP, Table 9), 100 to 500 nM; in assay [5] (ADP-Glo, 1000 μM ATP, Table 9), 100 to 500 nM; in assay [6], 2 to 10 nM. In addition, the 50% inhibitory concentration (IC50) was 10 to 50 nM in assay [7] and 250 to 1250 nM in assay [8].
As for `O=C1N[C@H]2C[C@H](CCc3cc(ccn3)Nc3cc(n[nH]3)[C@H]3CC[C@H](C3)O1)C2` [compound 140], the half-inhibitory concentration (IC50) was 10 to 50 nM in assay [1] (ADP-Glo, 1000 μM ATP, Table 19); at most 10 nM in assay [2] (ADP-Glo, 1000 μM ATP, Table 19); 10 to 50 nM in assay [3] (ADP-Glo, 1000 μM ATP, Table 19); 50 to 100 nM in assay [4] (ADP-Glo, 1000 μM ATP, Table 19); 10 to 50 nM in assay [5] (ADP-Glo, 1000 μM ATP, Table 19); 2 to 10 nM in assay [6]. The IC50 in assay [7] lay in the range of 10 to 50 nM; in assay [8], 50 to 250 nM.
